# Results as given in paper PMC10950897, “VCF1 is a p97/VCP cofactor promoting recognition of ubiquitylated p97-UFD1-NPL4 substrates” (Nature Communications, 2024).
# Key:
# p97 (His6-p97 Y143A) = experiment: SPR: binding to immobilized His6-p97 Y143A mutant; parameters: species or system human; conditions: full-length VCF1 up to 100 nM
# Experimental: Surface Plasmon Resonance (SPR)
# All SPR experiments were performed at 25 °C on a Biacore T200 instrument equipped with CM5 or CM7 sensor chips (Cytiva, Uppsala, Sweden). SPR running buffers and amine-coupling reagents (N-ethyl-N’-(3-dimethlyaminoproply)carbodiimide (EDC), N-hydroxysuccinimide (NHS), and ethanolamine HCl) were purchased from Cytiva. 1x PBS-P (11.9 mM NaH2PO4-Na2HPO4, pH 7.4; 137 mM NaCl; 2.7 mM KCl; 0.005% surfactant P20) supplemented with 0.5 mM TCEP was used as running buffer for the immobilization and the binding experiments with Strep-HA-VCF1 full-length proteins. For the VCF1 C-terminal peptide binding studies, 2% DMSO was additionally included in the running buffer. Eight solvent correction samples ranging from 1.5% DMSO to 2.8% DMSO prepared in either PBS-P, 0.5 mM TCEP or Tris-based buffer were used to correct buffer/DMSO mismatches. […] The dissociation rate of the p97-VCF1 complexes was monitored for 400 s. […] Binding experiments were measured in triplicates. […] The equilibrium dissociation contants, Kd, were determined by plotting the equilibrium responses levels (Req) against […] and fitting to a steady-state model.
# p97-UFD1-NPL4 = experiment: Analytical gel filtration; format: binding, human; conditions: equimolar p97, UFD1-NPL4, VCF1 (5 µM), pH 7.4
# Experimental: For analytical gel filtration, p97 alone (5 µM hexamer), or p97 (5 µM hexamer) with UFD1-NPL4 (5 µM) and VCF1 (5 µM) were mixed in a total volume of 25 µl in SEC buffer (50 mM HEPES, pH 7.4; 150 mM NaCl). Samples were separated by size exclusion chromatography on a Superose 6 3.2/300 column (Cytiva) equilibrated in SEC buffer using an ÄKTA Purifier 10 FPLC system (GE Healthcare). After the column dead volume (0.35 column volumes), fractions were collected (120 µl) and analyzed by immunoblotting.
# [1] = test system: p97-UFD1-NPL4 binding to K48-Ub2-7; experiment: FLAG IP: p97-UFD1-NPL4 binding to K48-linked ubiquitin chains, purified proteins; format: biochemical, human; conditions: purified proteins
# Experimental: All in vitro binding experiments were performed in EBC or RIPA buffer as indicated. Recombinant Biotin-tagged K48-linked poly-ubiquitin chains (2−7) and K48-linked poly-ubiquitin chains (2−16) were purchased from R&D Systems and Enzo Life Science, respectively. Recombinant proteins were incubated with Strep-Tactin Sepharose (IBA), Glutathione agarose (Gold Biotechnology) or […] Fab-trap agarose (ChromoTek) overnight on an end-over-end rotator at 4 °C, washed six times with EBC or RIPA buffer, and resuspended in 2×Laemmli sample buffer. For p97, VCF1 or p47 pulldowns, antibodies (0.5 µg/sample) were coupled to agarose beads, incubated with recombinant proteins or cell lysates and washed with the indicated buffer. To assess p97-UFD1-NPL4 binding to ubiquitylated proteins in total cell extracts, U2OS cells were lysed in EBC buffer supplemented with protease and phosphatase inhibitors, sonicated and incubated on ice for 10 min. Lysates were cleared by centrifugation for 10 min at 16,100 × g. Cell lysate (40 µg) was added to recombinant proteins in EBC buffer, incubated overnight on the rotator with […] Fab-trap agarose (ChromoTek), and beads were washed six times.
substance,measurement,setting,value
"VCF1: human FAM104A isoform 1, 186 amino acids (UniProt Q969W3); recombinant Strep-HA-tagged",binding to p97 Y143A (in words),p97 (His6-p97 Y143A),did not show detectable binding affinity
same,binding to p97 Y143A (in words),p97 (His6-p97 Y143A); listed as Strep-HA-VCF1 WT,no dose-dependent response was observed
same,comigration in size-exclusion chromatography,p97-UFD1-NPL4,comigration of the p97-VCF1-UFD1-NPL4 complex
same,effect on UFD1-NPL4 association with p97,[1],no discernible impact on UFD1-NPL4 association with p97
same,effect on p97-UFD1-NPL4 binding to K48 ubiquitin chains,[1]; FLAG IP,strong stimulatory impact on p97-UFD1-NPL4 binding to K48-linked poly-ubiquitin chains in vitro
